Tests used:
C2/4GnT = molecular target: T1, C2/4GnT (Homo sapiens, UniProt O95395); assay: C2/4GnT GlcNAc-transferase activity assay with acceptor/donor substrates; assay type: biochemical; settings: for Substrate specificity: C2/4GnT activity, 2 mM: acceptor substrate 2 mM; for Substrate specificity: C2/4GnT activity, 2 mM / Substrate specificity: C2/4GnT activity, 10 mM: partially purified media of infected High Five cells, background subtracted; for Substrate specificity: C2/4GnT activity, 10 mM: acceptor substrate 10 mM; for C2/4GnT activity with acceptor substrate (in words): as acceptor substrate; for C2/4GnT activity with donor substrate (in words): as donor substrate, data not shown; for Substrate inhibition of C2/4GnT enzyme activity: high acceptor concentrations up to 20 mM
T1 construct: An expression construct designed to encode amino acid residues 31-438 of C2/4GnT was prepared by PCR using P1 DNA; gp67 secretion signal of vector pAcGP67A (own knowledge of the vector); made in house; host or cells: Sf9 cells (culture supernatant, standard assays); High Five cells (partially purified enzyme, kinetics)
T1 sequence (O95395 31-438): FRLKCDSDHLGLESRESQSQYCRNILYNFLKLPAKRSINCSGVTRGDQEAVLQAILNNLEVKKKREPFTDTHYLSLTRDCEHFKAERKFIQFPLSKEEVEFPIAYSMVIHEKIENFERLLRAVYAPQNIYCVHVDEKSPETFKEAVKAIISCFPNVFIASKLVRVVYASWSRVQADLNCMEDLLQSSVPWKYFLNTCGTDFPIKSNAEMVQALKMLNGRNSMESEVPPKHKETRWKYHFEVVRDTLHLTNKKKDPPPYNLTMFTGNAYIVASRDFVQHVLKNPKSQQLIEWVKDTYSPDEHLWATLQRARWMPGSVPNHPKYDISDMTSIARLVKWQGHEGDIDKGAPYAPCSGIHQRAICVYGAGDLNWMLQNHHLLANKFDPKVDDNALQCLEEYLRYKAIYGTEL
Method: (§1) An expression construct designed to encode amino acid residues 31-438 of C2/4GnT was prepared by PCR using P1 DNA, and the primer pair TSHC55 (5′-[…]-3′) (SEQ ID NO:8) and TSHC45 (SEQ ID NO:5) (FIG. 2). The PCR product was cloned into the EcoRI site of pAcGP67A (PharMingen), and the insert was fully sequenced. pAcGP67-C2/4GnT-sol was co-transfected with Baculo-Gold™ DNA (PharMingen) as described previously (14). Recombinant Baculo-virus were obtained after two successive amplifications in Sf9 cells grown in serum-containing medium, and titers of virus were estimated by titration in 24-well plates with monitoring of enzyme activities.
(§2) Controls included the pAcGP67-GalNAc-T3-sol (15). The kinetic properties were determined with partially purified enzymes expressed in High Five™ cells. Partial purification was performed by consecutive chromatography on Amberlite IRA-95, DEAE-Sephacryl and CM-Sepharose essentially as described (16).
as §1, with “sequenced. Plasmids” for “sequenced.”, “pAcGP67-C2/4GnT-sol and pAcGP67-C2GnT-sol were” for “pAcGP67-C2/4GnT-sol was”, “activities. Controls included the pAcGP67-GalNAc-T3-sol (15).” for “activities.”
(§3) Standard assays were performed using culture supernatant from infected cells in 50 μl reaction mixtures containing 100 mM MES […], 10 mM EDTA, 10 mM 2-Acetamido-2-deoxy-D-glucono-1,5-lacton, 180 μM UDP-[^14C]-GlcNAc (6,000 cpm/nmol) (Amersham Pharmacia Biotech), and the indicated concentrations of acceptor substrates (Sigma and Toronto Research Laboratories Ltd., see Table I for structures). Semi-purified C2/4GnT was assayed in 50 μl reaction mixtures containing 100 mM MES (pH 7), 5 mM EDTA, 90 μM UDP-[^14C]-GlcNAc (3,050 cpm/nmol) (Amersham Pharmacia Biotech), and the indicated concentrations of acceptor substrates. Reaction products were quantified by chromatography on Dowex AGI-X8.

C2GnT = molecular target: T2, C2GnT (Homo sapiens, UniProt Q02742); assay: C2GnT GlcNAc-transferase activity assay with acceptor substrates; assay type: biochemical; settings: partially purified media of infected High Five cells, background subtracted; for Substrate specificity: C2GnT activity, 2 mM: acceptor substrate 2 mM; for Substrate specificity: C2GnT activity, 10 mM: acceptor substrate 10 mM
T2 construct: Plasmids pAcGP67-C2/4GnT-sol and pAcGP67-C2GnT-sol were co-transfected with; gp67 secretion signal of vector pAcGP67 (own knowledge of the vector); made in house; host or cells: Sf9 cells (baculovirus, culture supernatant)
T2 sequence (Q02742 33-428 limits assumed): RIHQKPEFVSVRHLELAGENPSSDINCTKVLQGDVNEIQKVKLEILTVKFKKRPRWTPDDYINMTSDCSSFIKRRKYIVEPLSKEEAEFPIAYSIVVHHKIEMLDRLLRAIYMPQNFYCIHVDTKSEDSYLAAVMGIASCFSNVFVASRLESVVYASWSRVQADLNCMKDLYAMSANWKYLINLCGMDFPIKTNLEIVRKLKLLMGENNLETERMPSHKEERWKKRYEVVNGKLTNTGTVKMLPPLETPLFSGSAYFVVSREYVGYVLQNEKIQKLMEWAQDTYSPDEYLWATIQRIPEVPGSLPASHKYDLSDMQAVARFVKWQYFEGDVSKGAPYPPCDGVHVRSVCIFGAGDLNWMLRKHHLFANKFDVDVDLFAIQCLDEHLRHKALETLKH
Method: as §2
as §1, with “sequenced. Plasmids” for “sequenced.”, “pAcGP67-C2/4GnT-sol and pAcGP67-C2GnT-sol were” for “pAcGP67-C2/4GnT-sol was”, “activities. Controls included the pAcGP67-GalNAc-T3-sol (15).” for “activities.”
as §3

Structure (SMILES)	Substrate specificity: C2/4GnT activity, 2 mM (C2/4GnT) [nmol/h/mg]	Substrate specificity: C2/4GnT activity, 10 mM (C2/4GnT) [nmol/h/mg]	C2/4GnT activity with acceptor substrate (in words) (C2/4GnT)	Substrate specificity: C2GnT activity, 2 mM (C2GnT) [nmol/h/mg]	Substrate specificity: C2GnT activity, 10 mM (C2GnT) [nmol/h/mg]	C2/4GnT activity with donor substrate (in words) (C2/4GnT)	Substrate inhibition of C2/4GnT enzyme activity (C2/4GnT)
CC(=O)N[C@H]1[C@H](O[C@H]2[C@@H](O)[C@@H](CO)O[C@@H](O[C@H]3[C@H](O)[C@@H](O)C(O)O[C@@H]3CO)[C@@H]2O)O[C@H](CO)[C@@H](O[C@@H]2O[C@H](CO)[C@H](O)[C@H](O)[C@H]2O)[C@@H]1O (mixture of isomers) [lacto-N-neo-tetraose]	<0.1	<0.1	no activity	<0.1	<0.1	–	–
CC(=O)N[C@H]1C(O)O[C@H](CO)[C@H](O)[C@@H]1O (stereo partly drawn) [D-GalNAc]	<0.1	<0.1	–	<0.1	<0.1	–	–
CC(=O)N[C@H]1[C@@H](OP(=O)(O)OP(=O)(O)OC[C@H]2O[C@@H](n3ccc(=O)[nH]c3=O)[C@H](O)[C@@H]2O)O[C@H](CO)[C@H](O)[C@@H]1O [UDP-GalNAc]	–	–	–	–	–	no activity	–
CC(=O)N[C@H]1[C@@H](OP(=O)(O)OP(=O)(O)OC[C@H]2O[C@@H](n3ccc(=O)[nH]c3=O)[C@H](O)[C@@H]2O)O[C@H](CO)[C@@H](O)[C@@H]1O [UDP-GlcNAc, UDP-N-acetylglucosamine]	–	–	–	–	–	strict donor substrate specificity	–
CC(=O)N[C@H]1[C@@H](Oc2ccc([N+](=O)[O-])cc2)O[C@H](CO)[C@H](O)[C@@H]1O [α-D-GalNAc-1-p-Nph]	<0.1	<0.1	no activity	<0.1	<0.1	–	–
CC(=O)N[C@H]1[C@@H](Oc2ccc([N+](=O)[O-])cc2)O[C@H](CO)[C@H](O)[C@@H]1O[C@@H]1O[C@H](CO)[C@H](O)[C@H](O)[C@H]1O [β-D-Gal-(1-3)-α-D-GalNAc-1-p-Nph]	16.1	21.8	–	16.2	23.6	–	No substrate inhibition
CC(=O)N[C@@H]1[C@@H](O[C@@H]2O[C@H](CO)[C@H](O)[C@H](O)[C@H]2O)[C@@H](O)[C@@H](CO)O[C@@H]1O [β-D-Gal-(1-3)-α-D-GalNAc]	2.8	7.3	–	9.6	19.0	–	–
CC(=O)NC1C(OC2C(O)C(CO)OC(Oc3ccc([N+](=O)[O-])cc3)C2NC(C)=O)OC(CO)C(O)C1O [β-D-GlcNAc-(1-3)-α-D-GalNAc-1-p-Nph]	5.2	7.4	–	<0.1	<0.1	–	No substrate inhibition
CO[C@@H]1O[C@H](CO)[C@H](O)[C@H](O[C@@H]2O[C@H](CO)[C@@H](O)[C@H](O)[C@H]2NC(C)=O)[C@H]1O [β-D-GlcNAc-(1-3)-β-D-Gal-1-Me]	<0.1	<0.1	no activity	<0.1	<0.1	–	–

Source: patent publication US7381554B2, “UDP-N-acetylglucosamine: galactose-β1,3-N-acetylgalactosamine-α-R/N-acetylglucosamine-β1,3-N-acetylgalactosamine-α-R (GlcNAc to GalNAc) β1,6-N-acetylglucosaminyltransferase, C2/4GnT” (Glycozym ApS, priority 1998, dated 2008)
